The results in this text go back to patent US8518930B2, “Therapeutic combination comprising a CDKS inhibitor and an antineoplastic agent” (Nerviano Medical Sciences S.r.l., priority 2008, dated 2013).

Molecules are shown by their SMILES. Where two headings read alike, the source gives them in different places.

Data set [1] relates to HCT-116 human colon carcinoma. The experiment in a line: In vivo antitumor efficacy in combination with 5-FU, subcutaneous xenograft. The note with it: for T − C: time to reach 1 g. How it is done:
Balb, Nu/Nu male mice, from Harlan (Italy), were maintained in cages with paper filter cover, food and bedding sterilized and water acidified. Fragments of HCT-116 human colon carcinoma were implanted subcutaneously in athymic mice.
(§1) The treatment started when tumors were palpable. Both compounds were prepared immediately before treatment.
5-FU was administered by intravenous route in a volume of 10 ml/kg at the dose of 50 mg/kg on days 1, 8. […] Toxicity was evaluated on the basis of body weigh reduction.

For data set [2], the system named is U87-MG human glioblastoma. The note with it: for T − C: time to reach 1 g; for Toxicity: male, Balb Nu/Nu (athymic), mouse, in vivo, po, 7 days. How it is done:
Balb, Nu/Nu male mice, from Harlan (Italy), were maintained in cages with paper filter cover, food and bedding sterilized and water acidified. Fragments of U87-MG human glioblastoma were implanted subcutaneously in athymic mice. […] The treatment with temozolomide started when tumors were palpable. Compounds were prepared immediately before treatment.
(§2) Temozolomide was administered orally in a volume of 10 ml/kg at the dose of 25 mg/kg for 5 consecutive days. […] Tumor growth and body weight were measured every 3 days. Tumor growth was assessed by caliper. The two diameters were recorded and the tumor weight was calculated according the following formula: length (mm)×width^2/2. The effect of the antitumor treatment was evaluated as the delay in the onset of an exponential growth of the tumor (see for references, Anticancer drugs 7:437-60,1996). This delay (T-C value) was defined as the difference of time (in days) required for the treatment group (T) and the control group (C) tumors to reach a predetermined size (1 g). Toxicity was evaluated on the basis of body weigh reduction.

The test system of data set [3] is A2780 human ovarian carcinoma cells. Kind of data set: In vitro cytotoxic activity of the combination with gemcitabine (cell proliferation, cellular ATP monitoring). In kind it is cell-based. The settings on record: for IC50: Homo sapiens, single agent, A2780, compound of formula (I) 24 hours, gemcitabine 1 hour, counted 72 hours after first treatment. How it is done:
Exponentially growing A2780 human ovarian carcinoma cells were seeded and incubated at 37° C. in a humidified 5% CO2 atmosphere. After 24 hours, scalar doses of the compound of formula (I) were added to the medium for 24 hours, cells were washed and gemcitabine added for 1 hour. Cells were then washed and counted 72 hours after the first treatment. Cell proliferation was determined by a cellular adenosine triphosphate monitoring system. Cell proliferation was compared to control cells. The concentration inhibiting cell proliferation by 50% (IC50) was calculated.
(§3) The combination indices (C.I.) were calculated using a computer program for multiple drug effect analysis based on the equation of Chou-Talalay (Adv Enzyme Regul 1984; 22:27-55) for mutually nonexclusive drugs, where a C.I. of <1 indicates a more than additive effect.

For data set [4] the test system is unchanged. Kind of data set: In vitro cytotoxic activity of the combination with oxaliplatin (cell proliferation, cellular ATP monitoring). The settings on record: for IC50: single agent, A2780, oxaliplatin 1 hour, compound of formula (I) 24 hours, counted 72 hours after first treatment. In kind it is cell-based. How it is done: (§4) Exponentially growing A2780 human ovarian carcinoma cells were seeded and incubated at 37° C. in a humidified 5% CO2 atmosphere. After 24 hours, scalar doses of oxaliplatin were added to the medium for 1 hour, cells were washed and compound of formula (I) added for 24 hours. Cells were then washed and counted 72 hours after the first treatment. Cell proliferation was determined by a cellular adenosine triphosphate monitoring system. Cell proliferation was compared to control cells. The concentration inhibiting cell proliferation by 50% (IC50) was calculated.
as §3

Data set [5] has the same test system. Kind of data set: In vitro cytotoxic activity of the combination with SN-38 (cell proliferation, cellular ATP monitoring). The class given is cell-based. The settings on record: for IC50: single agent, A2780, SN-38 1 hour, compound of formula (I) 24 hours, counted 72 hours after first treatment. How it is done: as §4, with “SN38 is the active metabolite of irinotecan, from which is obtained by hydrolysis. Exponentially” for “Exponentially”, “SN-38” for “oxaliplatin”
as §3

In data set [6] the test system is N-592 human small cell lung cancer tumors. The note with it: for T − C: time to reach 1 g; for Toxicity: male, Balb Nu/Nu (athymic), mouse, in vivo, po, 17 days. How it is done: Balb, Nu/Nu male mice, from Harlan (Italy), were maintained in cages with paper filter cover, food and bedding sterilized and water acidified. Fragments of N-592 human small cell lung cancer tumors were implanted subcutaneously in athymic mice.
as §1
as §2, with “Topotecan” for “Temozolomide”, “by intravenous route” for “orally”, “6” for “25”, “on days 1, 5, 9, 13, 17.” for “for 5 consecutive days.”, “references” for “references,”, “7:437-60, 1996).” for “7:437-60,1996).”

Where [7] appears, read: temozolomide 25 mg/kg orally, days 1-5.
[8] abbreviates: compound of formula (I) 20 mg/kg orally twice a day, days 1-7.
Where [9] appears, read: compound of formula (I) 40 mg/kg orally twice a day, days 1-7.

For the molecule `O=c1[nH]cc(F)c(=O)[nH]1` [5-FU, 5-fluorouracil, reference compound], the “T − C” value in data set [1] (5-FU 50 mg/kg intravenous, days 1, 8) worked out at 2.17 days.

For the molecule `Cn1nnc2c(C(N)=O)ncn2c1=O` [temozolomide, reference compound], in data set [2] (setting [7]), the Tumor-free mice is 1/8 and the “T − C” value stood at 30.88 days.

Take `CNC(=O)c1nn(C)c2c1C(C)(C)Cc1cnc(Nc3ccc(N4CCN(C)CC4)cc3)nc1-2` [compound of formula (I), 8-[4-(4-methyl-piperazin-1-yl)-phenylamino]-1,4,4-trimethyl-4,5-dihydro-1H-pyrazolo[4,3-h]quinazoline-3-carboxylic acid methylamide]: the IC50 in data set [3] stood at 419 nM; in data set [4] (Homo sapiens) it was 876 nM; in data set [5] (Homo sapiens), 690 nM. Besides, the combination effect entry is recorded as “more than additive (i.e. synergic) effect” in data set [3] (compound of formula (I) combined with gemcitabine, human tumor cells); “more than additive (i.e. synergic) effect” in data set [4] (compound of formula (I) combined with oxaliplatin, human tumor cells); “more than additive (i.e. synergic) effect” in data set [5] (compound of formula (I) combined with SN-38, human tumor cells); “clear synergic effect” in data set [2] (compound of formula (I) combined with temozolomide, U87-MG xenograft); “clear synergistic effect” in data set [6] (compound of formula (I) combined with topotecan, N-592 xenograft); “clear synergistic effect” in data set [1] (compound of formula (I) combined with 5-FU, HCT-116 xenograft). The Tumor-free mice in data set [2] (setting [8]) and in data set [2] (setting [9]) was 0/8 throughout. The “T − C” value in data set [2] (setting [8]) is reported as 1.74 days; in data set [2] (setting [9]), 7.14 days; in data set [6] (Compound of formula (I) 20 mg/kg orally twice a day, days 1-17), 1.61 days; in data set [6] (Compound of formula (I) 30 mg/kg orally twice a day, days 1-17) it was 2.98 days; in data set [1] (Compound of formula (I) 20 mg/kg orally twice a day, days 2-7 and 9-14) it was 4.93 days. Further, the Toxicity in data set [2] (20 mg/kg) is reported as 0/8; in data set [2] (40 mg/kg) it was 0/8; in data set [6] (20 mg/kg) it was 0/7; in data set [6] (30 mg/kg) it was 0/7; in data set [1] (male, Balb Nu/Nu (athymic), mouse, in vivo, po, 20 mg/kg) it was 0/7.

Consider `CCc1c2c(nc3ccc(O)cc13)-c1cc3c(c(=O)n1C2)COC(=O)[C@]3(O)CC` [SN-38, reference compound], for which the half-maximal inhibitory concentration (IC50) in data set [5] came out at 39 nM.

Consider `Nc1ccn([C@@H]2O[C@H](CO)[C@@H](O)C2(F)F)c(=O)n1` [Gemcitabine, gemcitabine, reference compound], for which the IC50 in data set [3] is 364 nM.

In the case of `O=C1[O][Pt]2([NH][C@@H]3CCCC[C@H]3[NH]2)[O]C1=O` [Oxaliplatin, oxaliplatin, reference compound], the IC50 in data set [4] was 2470 nM.

Take `CC[C@@]1(O)C(=O)OCc2c1cc1n(c2=O)Cc2cc3c(CN(C)C)c(O)ccc3nc2-1` [topotecan, reference compound]: the “T − C” value in data set [6] (topotecan 6 mg/kg intravenous, days 1, 5, 9, 13, 17) stood at 5.64 days.

By IC50 is commonly meant the concentration needed to halve the response being measured.
